Reference: PMC7961048, “Hierarchized phosphotarget binding by the seven human 14-3-3 isoforms” (Nature Communications, 2021)
Read-outs that look alike come from different tables or passages of the source. Starred links: 1 amine or outer side, 2 acyl side, 3 side chain; linkers in the order of their positions; H or OH if unused. Non-standard residues stand in square brackets, D forms with d. Residues, ends and D or L forms follow the SMILES beside them. *: point of attachment. X1 = O=C(CCCC[C@@H]1SC[C@@H]2NC(=O)N[C@@H]21)NCCCOCCOCCOCCCN*; pT = C[C@@H](OP(=O)(O)O)[C@H](N)C(=O)O; Suc = O=C(CCC(=O)[*:2])[*:1]

Experiments:
14-3-3ζ = molecular target: T1, 14-3-3ζ (Homo sapiens, UniProt P63104); assay: biochemical; format: binding
T1 construct: Plasmids containing the cDNAs of the full-length 14-3-3 isoforms ε, γ, and ζ were received; made in house; host or cells: E. coli BL21(DE3)
T1 sequence (P63104 1-245): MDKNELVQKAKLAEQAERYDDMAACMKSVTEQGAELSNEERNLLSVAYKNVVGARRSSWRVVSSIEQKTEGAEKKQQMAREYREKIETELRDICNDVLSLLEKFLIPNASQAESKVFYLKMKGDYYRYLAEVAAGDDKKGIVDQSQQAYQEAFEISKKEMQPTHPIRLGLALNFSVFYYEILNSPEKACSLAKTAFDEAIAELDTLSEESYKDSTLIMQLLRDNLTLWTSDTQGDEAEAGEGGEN
Experimental: (§1) The seven full-length human 14-3-3 isoforms, produced as fusions to a maltose-binding protein (MBP), were analyzed for their interaction with four phospho-PBMs from E6 proteins of HPV types 16, 18, 33, and 35 belonging to subgroups 1 and 2 (as defined in Supplementary Fig. 1). For comparison, we also measured two non-viral phospho-PBMs originating from protein kinase RSK1[28]. We used a competitive fluorescence polarization (FP) assay that measures the displacement of a fluorescent tracer phosphopeptide (here, derived from the HSPB6 protein) bound beforehand to 14-3-3, by an increasing amount of the peptide of interest.
(§2) For affinity measurements, full-length human 14-3-3 constructs with an N-terminal MBP fusion were used. Plasmids containing the cDNAs of the full-length 14-3-3 isoforms ε, γ, and ζ were received from Prof. Lawrence Banks. cDNAs encoding other full-length 14-3-3 isoforms β, τ, η, and σ were obtained as codon-optimized for E. coli expression synthetic genes from IDT Technologies (Coralville, Iowa, USA). All 14-3-3 isoforms were fused via a three-alanine linker to the C terminus of a mutant MBP carrying the following amino acid substitutions facilitating crystallization: D83A, K84A, K240A, E360A, K363A, and D364A[62]. All resulting clones were verified by sequencing. The MBP-fused proteins were expressed in E. coli BL21(DE3) with IPTG induction. Proteins were affinity purified on an amylose column and were further purified by ion-exchange chromatography (HiTrap Q HP, GE Healthcare). Unfused 14-3-3 isoforms devoid of the flexible C-terminal tails (14-3-3βΔC, 14-3-3τΔC 14-3-3εΔC) were expressed using IPTG induction and purified by subtractive IMAC and SEC[40]. Protein concentrations were determined by UV spectroscopy. The samples were supplemented with glycerol and TCEP before aliquoting and freezing in liquid nitrogen.
(§3) Unless otherwise stated, all phosphopeptide-binding measurements were performed using full-length 14-3-3 proteins fused to the C terminus of MBP, favoring optimal solubility and a standardized parallel purification scheme.
(§4) FP was measured with a PHERAstar (BMG Labtech, Offenburg, Germany) microplate reader by using 485 ± 20 and 528 ± 20 nm band-pass filters (for excitation and emission, respectively). In direct FP measurements, a dilution series of the 14-3-3 protein was prepared in 96-well plates (96-well skirted PCR plate, 4ti-0740, 4titude, Wotton, UK) in a 20 mM HEPES pH 7.5 buffer containing 150 mM NaCl, 0.5 mM TCEP, 0.01% Tween 20, 50 nM fluorescently labeled fpB6 peptide, and 100 μM FSC, if indicated. The volume of the dilution series was 40 μl, which was later divided into three technical replicates of 10 μl upon transferring to 384-well micro-plates (low binding microplate, 384 well, E18063G5, Greiner Bio-One, Kremsmünster, Austria). In total, polarization of the probe was measured at eight different protein concentrations (whereas one contained no protein and corresponded to the free peptide). In competitive FP measurements, the same buffer was supplemented with the protein to achieve a complex formation of 60–80%, based on the direct titration. Then, this mixture was used for creating a dilution series of the unlabeled competitor (i.e., the studied peptides) and the measurement was carried out identically as in the direct experiment.
(§5) All FP experiments were done in triplicates. Analysis of FP experiments were carried out using ProFit, an in-house developed, Python-based fitting program. ProFit utilizes a Monte Carlo approach to take into account experimental variability. It generates hundreds of simulated datasets, based on the experimental data variance and fits direct and competitive measurements in pairs.

14-3-3β = molecular target: T2, 14-3-3β (Homo sapiens, UniProt P31946); assay: biochemical; format: binding
T2 construct: cDNAs encoding other full-length 14-3-3 isoforms β, τ, η, and σ were obtained as codon-optimized; made in house; host or cells: E. coli BL21(DE3)
T2 sequence (P31946 1-246): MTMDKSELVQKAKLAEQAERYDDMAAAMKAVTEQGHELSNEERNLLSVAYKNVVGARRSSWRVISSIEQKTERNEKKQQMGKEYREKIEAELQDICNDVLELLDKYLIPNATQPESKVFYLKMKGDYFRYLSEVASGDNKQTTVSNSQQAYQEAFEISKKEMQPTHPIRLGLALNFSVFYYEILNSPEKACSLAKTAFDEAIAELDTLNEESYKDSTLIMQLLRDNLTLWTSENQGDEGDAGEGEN
Experimental: as §1, §2, §3, §4, §5

14-3-3σ = molecular target: T3, 14-3-3σ (Homo sapiens, UniProt P31947); assay: biochemical; format: binding
T3 construct: cDNAs encoding other full-length 14-3-3 isoforms β, τ, η, and σ were obtained as codon-optimized; made in house; host or cells: E. coli BL21(DE3)
T3 sequence (P31947 1-248): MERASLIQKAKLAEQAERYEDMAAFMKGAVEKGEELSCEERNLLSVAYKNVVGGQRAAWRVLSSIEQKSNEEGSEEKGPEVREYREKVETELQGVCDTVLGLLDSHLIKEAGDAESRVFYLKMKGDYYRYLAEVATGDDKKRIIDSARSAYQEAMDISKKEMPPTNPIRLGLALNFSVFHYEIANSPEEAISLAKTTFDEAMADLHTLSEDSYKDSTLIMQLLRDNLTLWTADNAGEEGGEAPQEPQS
Experimental: as §1, §2, §3, §4, §5

14-3-3η = molecular target: T4, 14-3-3η (Homo sapiens, UniProt Q04917); assay: biochemical; format: binding
T4 construct: cDNAs encoding other full-length 14-3-3 isoforms β, τ, η, and σ were obtained as codon-optimized; made in house; host or cells: E. coli BL21(DE3)
T4 sequence (Q04917 1-246): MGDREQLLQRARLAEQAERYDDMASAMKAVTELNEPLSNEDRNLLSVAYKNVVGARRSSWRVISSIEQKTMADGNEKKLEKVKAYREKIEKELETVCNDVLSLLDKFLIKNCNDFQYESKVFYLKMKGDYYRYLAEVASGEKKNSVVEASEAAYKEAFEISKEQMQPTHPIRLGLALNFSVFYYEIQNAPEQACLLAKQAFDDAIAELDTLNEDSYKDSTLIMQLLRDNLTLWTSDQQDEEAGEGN
Experimental: as §1, §2, §3, §4, §5

14-3-3τ = molecular target: T5, 14-3-3τ (Homo sapiens, UniProt P27348); assay: biochemical; format: binding
T5 construct: cDNAs encoding other full-length 14-3-3 isoforms β, τ, η, and σ were obtained as codon-optimized; made in house; host or cells: E. coli BL21(DE3)
T5 sequence (P27348 1-245): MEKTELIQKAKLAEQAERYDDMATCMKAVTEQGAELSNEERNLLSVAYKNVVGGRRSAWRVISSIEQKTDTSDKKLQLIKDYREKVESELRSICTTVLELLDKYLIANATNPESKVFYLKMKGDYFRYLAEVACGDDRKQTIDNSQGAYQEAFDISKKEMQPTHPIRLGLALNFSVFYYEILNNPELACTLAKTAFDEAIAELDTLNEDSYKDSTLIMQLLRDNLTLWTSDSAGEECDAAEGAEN
Experimental: as §1, §2, §3, §4, §5

14-3-3γ = molecular target: T6, 14-3-3γ (Homo sapiens, UniProt P61981); assay: biochemical; format: binding
T6 construct: full-length human 14-3-3 constructs with an N-terminal MBP fusion were used; made in house; host or cells: E. coli BL21(DE3)
T6 sequence (P61981 1-247): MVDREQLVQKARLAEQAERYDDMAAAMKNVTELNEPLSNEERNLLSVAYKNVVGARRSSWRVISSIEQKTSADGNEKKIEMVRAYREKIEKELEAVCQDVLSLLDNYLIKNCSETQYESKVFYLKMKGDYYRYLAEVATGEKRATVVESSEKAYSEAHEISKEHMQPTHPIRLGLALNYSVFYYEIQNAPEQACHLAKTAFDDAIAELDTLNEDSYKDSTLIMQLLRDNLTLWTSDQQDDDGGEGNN
Experimental: as §1, §2, §3, §4, §5

14-3-3ε = molecular target: T7, 14-3-3ε (Homo sapiens, UniProt P62258); assay: biochemical; format: binding
T7 construct: Plasmids containing the cDNAs of the full-length 14-3-3 isoforms ε, γ, and ζ were received; made in house; host or cells: E. coli BL21(DE3)
T7 sequence (P62258 1-255): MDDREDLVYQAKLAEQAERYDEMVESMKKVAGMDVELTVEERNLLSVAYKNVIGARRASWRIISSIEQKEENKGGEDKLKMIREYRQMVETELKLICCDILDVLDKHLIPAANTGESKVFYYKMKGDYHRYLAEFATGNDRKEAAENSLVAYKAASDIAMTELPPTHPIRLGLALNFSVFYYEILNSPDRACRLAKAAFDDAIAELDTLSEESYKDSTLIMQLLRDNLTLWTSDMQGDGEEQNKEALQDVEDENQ
Experimental: as §1, §2, §3, §4, §5

14-3-3 isoforms = conditions: Figure 4 panel a, literature-curated motifs, unit from the colour scale line, cited from earlier work

| Compound | Kd (14-3-3ζ) | Kd (14-3-3β) | Kd (14-3-3σ) | Kd (14-3-3η) | Kd (14-3-3τ) | Kd (14-3-3γ) | Kd (14-3-3ε) | Kd (14-3-3 isoforms; 14-3-3β, read-out: Binding affinities (KD) of various 14-3-3-binding motifs, 14-3-3β) | Kd (14-3-3 isoforms; 14-3-3γ, read-out: Binding affinities (KD) of various 14-3-3-binding motifs, 14-3-3γ) | Kd (14-3-3 isoforms; 14-3-3ε, read-out: Binding affinities (KD) of various 14-3-3-binding motifs, 14-3-3ε) | Kd (14-3-3 isoforms; 14-3-3ζ, read-out: Binding affinities (KD) of various 14-3-3-binding motifs, 14-3-3ζ) | Kd (14-3-3 isoforms; 14-3-3η, read-out: Binding affinities (KD) of various 14-3-3-binding motifs, 14-3-3η) | Kd (14-3-3 isoforms; 14-3-3σ, read-out: Binding affinities (KD) of various 14-3-3-binding motifs, 14-3-3σ) | Kd (14-3-3 isoforms; 14-3-3τ, read-out: Binding affinities (KD) of various 14-3-3-binding motifs, 14-3-3τ) |
| --- | --- | --- | --- | --- | --- | --- | --- | --- | --- | --- | --- | --- | --- | --- |
| CC(C)[C@H](NC(=O)[C@H](C)NC(=O)[C@@H](NC(=O)[C@H](CCC(=O)O)NC(=O)[C@H](CCCNC(=N)N)NC(=O)[C@H](CCCNC(=N)N)NC(=O)[C@H](CCCNC(=N)N)NC(=O)[C@@H]1CCCN1C(=O)[C@H](CCCCN)NC(=O)[C@H](CO)NC(=O)CCC(=O)NCCCOCCOCCOCCCNC(=O)CCCC[C@@H]1SC[C@@H]2NC(=O)N[C@@H]21)[C@@H](C)OP(=O)(O)O)C(=O)O [pHPV35E6T-6R, E-1A] ({X1-Suc}-SKPRRRE[pT]AV-OH) | 7.3 ± 0.4 µM | 7.1 ± 0.5 µM | 18.9 ± 1.9 µM | 4.8 ± 0.5 µM | 5.8 ± 0.4 µM | 3.3 ± 0.2 µM | 13 ± 2 µM |  |  |  |  |  |  |  |
| C-Raf254-264 (RQRSTSTPNVH; UniProt P04049 254-264, looked up, fragment) |  |  |  |  |  |  |  | 9.5 µM | 3.7 µM | 15.1 µM | 16.6 µM | 6.3 µM | 67.1 µM | 26.6 µM |
